Structures can show the parent of a compound that is named as a salt. Blank lines part the entries; values can stand above or below the compound they belong to.
Key:
[1] = hygroscopicity / Dynamic Vapor Sorption (DVS) of hydrochloride salt crystal forms; format: physicochemical; conditions: for hygroscopicity (Crystal Form Table) / hygroscopicity: hydrochloride salt crystal forms; for water absorbed eventually: 90% RH
Description: Dynamic Vapor Sorption (DVS) was done at 26° C.

[2] = target: T1, alpha7 nicotinic acetylcholine receptor (Rattus norvegicus, UniProt Q05941); test: functional FLIPR assay, alpha7 nAChR stably expressed in GH4C1 cells; format: cell-based; conditions: agonist, concentration range 0.001 to 30 microM
T1 construct: expressed in transfected cells
T1 sequence (Q05941 23-502): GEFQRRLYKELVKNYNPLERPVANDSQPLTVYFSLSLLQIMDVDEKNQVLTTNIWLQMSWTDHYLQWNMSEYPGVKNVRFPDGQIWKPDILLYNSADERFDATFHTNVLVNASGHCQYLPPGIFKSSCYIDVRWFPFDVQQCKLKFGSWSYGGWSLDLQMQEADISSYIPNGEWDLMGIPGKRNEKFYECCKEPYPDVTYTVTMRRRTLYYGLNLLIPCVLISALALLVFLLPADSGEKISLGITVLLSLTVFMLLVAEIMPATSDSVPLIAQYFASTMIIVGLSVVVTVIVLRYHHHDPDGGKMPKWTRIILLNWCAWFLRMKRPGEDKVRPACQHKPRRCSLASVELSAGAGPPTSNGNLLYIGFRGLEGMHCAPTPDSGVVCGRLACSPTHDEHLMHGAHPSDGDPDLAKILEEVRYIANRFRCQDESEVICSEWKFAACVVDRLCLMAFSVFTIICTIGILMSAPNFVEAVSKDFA

[3] = solubility in water of hydrochloride salt crystal forms; format: physicochemical

melting point: 185 °C
SMILES: COc1ccc(-c2cc(NC(=O)CCCCN3CCCN(C(C)=O)CC3)[nH]n2)cc1 (as salt: hydrochloric acid salt) [5-(4-Acetyl-[1,4]diazepan-1-yl)-pentanoic acid [5-(4-methoxy-phenyl)-2H-pyrazol-3-yl]-amide]

melting point: 132 to 133 °C
SMILES: COc1ccc(-c2cc(NC(=O)CCCCN3CCCN(C(C)=O)CC3)[nH]n2)cc1 (as salt: hydrochloride) [Example 4, 5-(4-Acetyl-[1,4]diazepan-1-yl)-pentanoic acid [5-(4-methoxy-phenyl)-2H-pyrazol-3-yl]-amide]

hygroscopicity (Crystal Form Table) [1]: Hygroscopic
SMILES: COc1ccc(-c2cc(NC(=O)CCCCN3CCCN(C(C)=O)CC3)[nH]n2)cc1 [Crystal Form III, 5-(4-Acetyl-[1,4]diazepan-1-yl)-pentanoic acid [5-(4-methoxy-phenyl)-2H-pyrazol-3-yl]-amide]

water uptake ([1]; at RH 50%): (7% at RH | hygroscopicity (Crystal Form Table) [1]: Hygroscopic
SMILES: COc1ccc(-c2cc(NC(=O)CCCCN3CCCN(C(C)=O)CC3)[nH]n2)cc1 [Crystal Form V, 5-(4-Acetyl-[1,4]diazepan-1-yl)-pentanoic acid [5-(4-methoxy-phenyl)-2H-pyrazol-3-yl]-amide]

Further lines, the compound ahead of its results:

SMILES: C[N+]1(C)CCN(c2ccccc2)CC1 [DMPP]
EC50 [2]: 0.98 ± 0.47 µM

SMILES: COc1ccc(-c2cc(NC(=O)CCCCN3CCCN(C(C)=O)CC3)n[nH]2)cc1.Cl [Form I, 5-(4-acetyl-1,4-diazepan-1-yl)-N-(5-(4-methoxyphenyl)-1H-pyrazol-3-yl)pentanamide hydrochloric salt Form I]
water absorbed eventually ([1]; DVS at 26° C.): up to 2% | relative humidity at which the form picks up moisture ([1]; DVS at 26° C.): about 50% | moisture gain ([1]; at 70-100% RH, lost without significant hysteresis on decreasing RH): at least 12% | moisture gain ([1]; equilibrated at RH less than or equal to 70%): about 0.5% | hygroscopicity [1]: relatively non-hygroscopic | solubility in water [3]: considerably soluble in water

SMILES: COc1ccc(-c2cc(NC(=O)CCCCN3CCCN(C(C)=O)CC3)n[nH]2)cc1.Cl [Form II, 5-(4-acetyl-1,4-diazepan-1-yl)-N-(5-(4-methoxyphenyl)-1H-pyrazol-3-yl)pentanamide hydrochloric salt Form II]
water absorbed eventually ([1]; DVS at 26° C.): up to 7% | relative humidity at which the form picks up moisture ([1]; DVS at 26° C.): about 20% | water held at low RH ([1]; RH 0%, DVS at 26° C.): 2% | hygroscopicity [1]: non-hygroscopic | solubility in water [3]: considerably soluble in water

SMILES: COc1ccc(-c2cc(NC(=O)CCCCN3CCCN(C(C)=O)CC3)n[nH]2)cc1.Cl [mono-HCl salt, 5-(4-Acetyl-[1,4]diazepan-1-yl)-pentanoic acid [5-(4-methoxy-phenyl)-1H-pyrazol-3-yl]-amide (mono hydrochloride salt)]
form change after DVS test [1]: NO form change

From patent US8163729B2 (Wyeth, priority 2007, dated 2012)
